Laboratory results reported in US20110071150A1 (priority 2009, published 2011).

Tested on: Jurkat IL-2 Production
Assay: Jurkat IL-2 Production Assay
Format: cell-based
Settings: Homo sapiens, Jurkat cell (ATCC), 18-20 h incubation, PHA 5 μg/mL with 1% FBS, or PMA/Ionomycin with 30% FBS (table does not say which)
Procedure: Jurkat IL-2 Production Assay
Cell: Jurkat cell (ATCC) was grown in RPMI 1640 with 10% FBS and 1% penicillin/streptomycin. The cell density was kept at 1.2-1.8×10^6/mL in culture flask before seeding into culture plate, and the cell density in the plate was 0.5×10^6/[…]/well.
Culture media: RPMI 1640 with 1% FBS or 30% FBS for high serum assay.
Test compound: serial dilution was done in 100% DMSO, and intermediate dilution was done with RPMI 1640 medium with 1% FBS. The DMSO final concentration in culture well was 0.25%.
Stimulant: PHA (Sigma#L9017-10MG) was used for the assay with 1% FBS in culture medium, and added after 10 minutes exposure of cell to compound/DMSO. The PHA final concentration in culture well was 5 μg/mL. PMA (Sigma# P-8139 5MG)/Ionomycin (Sigma# 10634-5MG) was used for the assay with 30% FBS in culture medium, and added at same time point as the 1% FBS culture assay. The final concentration of PMA was 50 ng/mL, and Ionomycin final concentration was 500 ng/mL.
Incubation: at 37° C. with 5% CO2 and 95% humidity for 18 h˜20 h.
IC50: IC50 was calculated with the data analysis software XLfit4, General Pharmacology model 251.

SMILES | IC50 [nM]
Cn1nc(C(F)(F)F)cc1-c1ccc2[nH]c(-c3c(F)cccc3F)cc2c1 [Example 1, 2-(2,6-Difluoro-phenyl)-5-(2-methyl-5-trifluoromethyl-2H-pyrazol-3-yl)-1H-indole] | 46
COc1ccc2c(c1)nc(C(F)(F)F)n2-c1ccc2[nH]c(-c3c(F)cccc3F)cc2c1 [Example 2, 1-[2-(2,6-Difluoro-phenyl)-1H-indol-5-yl]-5-methoxy-2-trifluoromethyl-1H-benzoimidazole] | 830
Cn1nc(C(F)(F)F)cc1-c1ccc2[nH]c(-c3ccc(OC(F)(F)F)cc3)cc2c1 [Example 3, 5-(2-Methyl-5-trifluoromethyl-2H-pyrazol-3-yl)-2-(4-trifluoromethoxy-phenyl)-1H-indole] | 954
Cc1sc(-c2ccccn2)nc1-c1ccc2[nH]c(-c3c(F)cccc3F)cc2c1 [Example 4, 2-(2,6-Difluoro-phenyl)-5-(5-methyl-2-pyridin-2-yl-thiazol-4-yl)-1H-indole] | 219
Cc1sc(-c2ccccn2)nc1-c1ccc2[nH]c(-c3ccccc3Cl)cc2c1 [Example 5, 2-(2-Chloro-phenyl)-5-(5-methyl-2-pyridin-2-yl-thiazol-4-yl)-1H-indole] | 223
Cc1ccccc1-c1cc2cc(-c3nc(-c4ccccn4)sc3C)ccc2[nH]1 [Example 6, 5-(5-Methyl-2-pyridin-2-yl-thiazol-4-yl)-2-o-tolyl-1H-indole] | 611
Cc1nc(-c2ccccc2)sc1-c1ccc2[nH]c(-c3ccccc3Cl)cc2c1 [Example 7, 2-(2-Chloro-phenyl)-5-(4-methyl-2-phenyl-thiazol-5-yl)-1H-indole] | 800
Cc1ncccc1-c1cc2cc(-c3sc(-c4ccccc4)nc3C)ccc2[nH]1 [Example 8, 5-(4-Methyl-2-phenyl-thiazol-5-yl)-2-(2-methyl-pyridin-3-yl)-1H-indole] | 287
Cc1sc(-c2ccccn2)nc1-c1ccc2[nH]c(-c3ccncc3F)cc2c1 [Example 9, 2-(3-Fluoro-pyridin-4-yl)-5-(5-methyl-2-pyridin-2-yl-thiazol-4-yl)-1H-indole] | 908
Cc1cnccc1-c1cc2cc(-c3nc(-c4ccccn4)sc3C)ccc2[nH]1 [Example 10, 2-(3-Methyl-pyridin-4-yl)-5-(5-methyl-2-pyridin-2-yl-thiazol-4-yl)-1H-indole] | 190
Cc1sc(-c2cccnc2)nc1-c1ccc2[nH]c(-c3ccccc3F)cc2c1 [Example 11, 2-(2-Fluoro-phenyl)-5-(5-methyl-2-pyridin-3-yl-thiazol-4-yl)-1H-indole] | 169
Cc1sc(-c2cccnc2)nc1-c1ccc2[nH]c(-c3ccccc3Cl)cc2c1 [Example 12, 2-(2-Chloro-phenyl)-5-(5-methyl-2-pyridin-3-yl-thiazol-4-yl)-1H-indole] | 86
Cc1sc(-c2cccnc2)nc1-c1ccc2[nH]c(-c3c(F)cccc3F)cc2c1 [Example 13, 2-(2,6-Difluoro-phenyl)-5-(5-methyl-2-pyridin-3-yl-thiazol-4-yl)-1H-indole] | 66
Cn1nc(C(F)(F)F)cc1-c1ccc2[nH]c(-c3ccccc3F)cc2c1 [Example 14, 2-(2-Fluoro-phenyl)-5-(2-methyl-5-trifluoromethyl-2H-pyrazol-3-yl)-1H-indole] | 337
CCn1nc(-c2ccccc2)cc1-c1ccc2[nH]c(-c3c(F)cccc3F)cc2c1 [Example 15, 2-(2,6-difluoro-phenyl)-5-(2-ethyl-5-phenyl-2H-pyrazol-3-yl)-1H-indole] | 468
CCn1nc(-c2ccccn2)cc1-c1ccc2[nH]c(-c3c(F)cccc3F)cc2c1 [Example 16, 2-(2,6-Difluoro-phenyl)-5-(2-ethyl-5-pyridin-2-yl-2H-pyrazol-3-yl)-1H-indole] | 211
Cn1nc(-c2ccncc2)cc1-c1ccc2[nH]c(-c3c(F)cccc3F)cc2c1 [Example 17, 2-(2,6-Difluoro-phenyl)-5-(2-methyl-5-pyridin-4-yl-2H-pyrazol-3-yl)-1H-indole] | 57
CCn1nc(-c2ccncc2)cc1-c1ccc2[nH]c(-c3c(F)cccc3F)cc2c1 [Example 18, 2-(2,6-Difluoro-phenyl)-5-(2-ethyl-5-pyridin-4-yl-2H-pyrazol-3-yl)-1H-indole] | 102
Cn1nc(-c2cccnc2)cc1-c1ccc2[nH]c(-c3c(F)cccc3F)cc2c1 [Example 19, 2-(2,6-Difluoro-phenyl)-5-(2-methyl-5-pyridin-3-yl-2H-pyrazol-3-yl)-1H-indole] | 198
CCn1nc(-c2cccnc2)cc1-c1ccc2[nH]c(-c3c(F)cccc3F)cc2c1 [Example 20, 2-(2,6-Difluoro-phenyl)-5-(2-ethyl-5-pyridin-3-yl-2H-pyrazol-3-yl)-1H-indole] | 101
Cc1sc(-c2ccncc2)nc1-c1ccc2[nH]c(-c3c(F)cccc3F)cc2c1 [Example 21, 2-(2,6-Difluoro-phenyl)-5-(5-methyl-2-pyridin-4-yl-thiazol-4-yl)-1H-indole] | 90
Cc1sc(-c2ccncc2)nc1-c1ccc2[nH]c(-c3ccccc3Cl)cc2c1 [Example 22, 2-(2-Chloro-phenyl)-5-(5-methyl-2-pyridin-4-yl-thiazol-4-yl)-1H-indole] | 150
Cc1ccc(-c2ncco2)cc1-c1ccc2[nH]c(-c3c(F)cccc3F)cc2c1 [Example 23, 2-(2,6-Difluoro-phenyl)-5-(2-methyl-5-oxazol-2-yl-phenyl)-1H-indole] | 210

The next lines start with the values.

IC50 [nM] | SMILES
427 | Fc1cccc(F)c1-c1cc2cc(-c3cccc(-c4ncco4)c3)ccc2[nH]1 [Example 24, 2-(2,6-Difluoro-phenyl)-5-(3-oxazol-2-yl-phenyl)-1H-indole]
224 | Cc1ccc(-c2nccs2)cc1-c1ccc2[nH]c(-c3c(F)cccc3F)cc2c1 [Example 25, 2-(2,6-Difluoro-phenyl)-5-(2-methyl-5-thiazol-2-yl-phenyl)-1H-indole]
639 | COc1ccc(OC)c(-c2ccc3[nH]c(-c4c(F)cccc4F)cc3c2)c1 [Example 26, 2-(2,6-Difluoro-phenyl)-5-(2,5-dimethoxy-phenyl)-1H-indole]
97 | Cc1cc(C#N)ccc1-c1ccc2[nH]c(-c3c(F)cccc3F)cc2c1 [Example 27, 4-[2-(2,6-Difluoro-phenyl)-1H-indol-5-yl]-3-methyl-benzonitrile]
123 | COc1ccc(-c2ccc3[nH]c(-c4c(F)cccc4F)cc3c2)c(C)c1 [Example 28, 2-(2,6-Difluoro-phenyl)-5-(4-methoxy-2-methyl-phenyl)-1H-indole]
168 | Cc1ccc(-c2ccc3[nH]c(-c4c(F)cccc4F)cc3c2)c(C)c1 [Example 29, 2-(2,6-Difluoro-phenyl)-5-(2,4-dimethyl-phenyl)-1H-indole]
85 | COC(=O)c1ccc(-c2ccc3[nH]c(-c4c(F)cccc4F)cc3c2)c(C)c1 [Example 30]
174 | Cc1cc(Cl)ccc1-c1ccc2[nH]c(-c3c(F)cccc3F)cc2c1 [Example 31, 5-(4-Chloro-2-methyl-phenyl)-2-(2,6-difluoro-phenyl)-1H-indole]
71 | Cc1cc(C(F)(F)F)ccc1-c1ccc2[nH]c(-c3c(F)cccc3F)cc2c1 [Example 32, 2-(2,6-Difluoro-phenyl)-5-(2-methyl-4-trifluoromethyl-phenyl)-1H-indole]
741 | Cn1nc(C(F)(F)F)cc1-c1ccc2[nH]c(-c3cc(Cl)ccc3F)cc2c1 [Example 33, 2-(5-Chloro-2-fluoro-phenyl)-5-(2-methyl-5-trifluoromethyl-2H-pyrazol-3-yl)-1H-indole]
184 | Cn1nc(C(F)(F)F)cc1-c1ccc2[nH]c(-c3ccc(Cl)cc3Cl)cc2c1 [Example 34, 2-(2,4-Dichloro-phenyl)-5-(2-methyl-5-trifluoromethyl-2H-pyrazol-3-yl)-1H-indole]
116 | Cn1nc(C(F)(F)F)cc1-c1ccc2[nH]c(-c3ccc(F)cc3Cl)cc2c1 [Example 35, 2-(2-Chloro-4-fluoro-phenyl)-5-(2-methyl-5-trifluoromethyl-2H-pyrazol-3-yl)-1H-indole]
131 | Cn1nc(C(F)(F)F)cc1-c1ccc2[nH]c(-c3ccncc3Cl)cc2c1 [Example 36, 2-(3-Chloro-pyridin-4-yl)-5-(2-methyl-5-trifluoromethyl-2H-pyrazol-3-yl)-1H-indole]
120 | Cc1cnccc1-c1cc2cc(-c3cc(C(F)(F)F)nn3C)ccc2[nH]1 [Example 37, 2-(3-Methyl-pyridin-4-yl)-5-(2-methyl-5-trifluoromethyl-2H-pyrazol-3-yl)-1H-indole]
83 | COc1ccc(-c2cc3cc(-c4cc(C(F)(F)F)nn4C)ccc3[nH]2)c(C)n1 [Example 38, 2-(6-Methoxy-2-methyl-pyridin-3-yl)-5-(2-methyl-5-trifluoromethyl-2H-pyrazol-3-yl)-1H-indole]
148 | COC(=O)c1ccc(-c2cc3cc(-c4cc(C(F)(F)F)nn4C)ccc3[nH]2)c(C)c1 [Example 39, 3-Methyl-4-[5-(2-methyl-5-trifluoromethyl-2H-pyrazol-3-yl)-1H-indol-2-yl]-benzoic acid methyl ester]
728 | Cc1cc(C(=O)O)ccc1-c1cc2cc(-c3cc(C(F)(F)F)nn3C)ccc2[nH]1 [Example 40]
